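GI50 is the concentration that inhibits growth by half. TGI marks complete inhibition of growth.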
Tests used:
Experiment in all cases: NCI tumour cell line growth inhibition, 384-well format
MDA-MB-435 melanoma = tested on: MDA-MB-435 melanoma
LOX IMVI melanoma = tested on: LOX IMVI melanoma
MDA-MB-231 breast = tested on: MDA-MB-231 breast
SR leukemia = tested on: SR leukemia
HT29 colon = tested on: HT29 colon
NCI-H322M lung = tested on: NCI-H322M lung
NCI/ADR-RES ovarian = tested on: NCI/ADR-RES ovarian
NCI-H23 lung = tested on: NCI-H23 lung
RXF 393 renal = tested on: RXF 393 renal
SNB-75 CNS = tested on: SNB-75 CNS
SK-MEL-28 melanoma = tested on: SK-MEL-28 melanoma
786-0 renal = tested on: 786-0 renal
A498 renal = tested on: A498 renal
SF-295 CNS = tested on: SF-295 CNS
SW-620 colon = tested on: SW-620 colon
ACHN renal = tested on: ACHN renal
OVCAR-4 ovarian = tested on: OVCAR-4 ovarian
BT-549 breast = tested on: BT-549 breast
HCT-15 colon = tested on: HCT-15 colon
UACC-257 melanoma = tested on: UACC-257 melanoma
HL-60(TB) leukemia = tested on: HL-60(TB) leukemia
SN12C renal = tested on: SN12C renal
TK-10 renal = tested on: TK-10 renal
NCI-H522 lung = tested on: NCI-H522 lung
OVCAR-8 ovarian = tested on: OVCAR-8 ovarian
UACC-62 melanoma = tested on: UACC-62 melanoma
SK-MEL-5 melanoma = tested on: SK-MEL-5 melanoma
KM12 colon = tested on: KM12 colon
OVCAR-5 ovarian = tested on: OVCAR-5 ovarian
SK-OV-3 ovarian = tested on: SK-OV-3 ovarian
HOP-62 NSCLC = tested on: HOP-62 NSCLC
U251 glioblastoma = tested on: U251 glioblastoma
SF-268 CNS = tested on: SF-268 CNS
HCT-116 colon = tested on: HCT-116 colon
CCRF-CEM leukemia = tested on: CCRF-CEM leukemia
EKVX NSCLC = tested on: EKVX NSCLC
HCC-2998 colon = tested on: HCC-2998 colon
SK-MEL-2 melanoma = tested on: SK-MEL-2 melanoma
CAKI-1 renal = tested on: CAKI-1 renal
NCI-H460 NSCLC = tested on: NCI-H460 NSCLC
MOLT-4 leukemia = tested on: MOLT-4 leukemia
T-47D breast = tested on: T-47D breast
UO-31 renal = tested on: UO-31 renal
OVCAR-3 ovarian = tested on: OVCAR-3 ovarian
NCI-H226 lung = tested on: NCI-H226 lung
A549 NSCLC = tested on: A549 NSCLC
M14 melanoma = tested on: M14 melanoma

Compound: Cc1cc(Nc2ccc(NC(=O)c3ccc(Nc4ccnc5ccccc45)cc3)cc2)nc(N)n1
- GI50 (MDA-MB-435 melanoma): 1850 nM
- TGI (MDA-MB-435 melanoma): 3260 nM
- GI50 (LOX IMVI melanoma): 166 nM
- TGI (LOX IMVI melanoma): 308 nM
- GI50 (MDA-MB-231 breast): 275 nM
- TGI (MDA-MB-231 breast): 737 nM
- GI50 (SR leukemia): 172 nM
- TGI (SR leukemia): 313 nM
- GI50 (HT29 colon): 319 nM
- TGI (HT29 colon): 815 nM
- GI50 (NCI-H322M lung): 418 nM
- TGI (NCI-H322M lung): 1260 nM
- GI50 (NCI/ADR-RES ovarian): > 100000 nM
- TGI (NCI/ADR-RES ovarian): > 100000 nM
- GI50 (NCI-H23 lung): 1010 nM
- TGI (NCI-H23 lung): 2840 nM
- GI50 (RXF 393 renal): 750 nM
- TGI (RXF 393 renal): 1840 nM
- GI50 (SNB-75 CNS): 2400 nM
- TGI (SNB-75 CNS): 4700 nM
- GI50 (SK-MEL-28 melanoma): 987 nM
- TGI (SK-MEL-28 melanoma): 2270 nM
- GI50 (786-0 renal): 872 nM
- TGI (786-0 renal): 2240 nM
- GI50 (A498 renal): 1500 nM
- TGI (A498 renal): 2890 nM
- GI50 (SF-295 CNS): 3160 nM
- TGI (SF-295 CNS): 8990 nM
- GI50 (SW-620 colon): 250 nM
- TGI (SW-620 colon): 580 nM
- GI50 (ACHN renal): 11200 nM
- TGI (ACHN renal): 31000 nM
- GI50 (OVCAR-4 ovarian): 521 nM
- TGI (OVCAR-4 ovarian): 957 nM
- GI50 (BT-549 breast): 490 nM
- TGI (BT-549 breast): 1120 nM
- GI50 (HCT-15 colon): 3870 nM
- TGI (HCT-15 colon): 13800 nM
- GI50 (UACC-257 melanoma): 556 nM
- TGI (UACC-257 melanoma): 1560 nM
- GI50 (HL-60(TB) leukemia): 603 nM
- TGI (HL-60(TB) leukemia): 1060 nM
- GI50 (SN12C renal): 1220 nM
- TGI (SN12C renal): 2480 nM
- GI50 (TK-10 renal): 5630 nM
- TGI (TK-10 renal): 17500 nM
- GI50 (NCI-H522 lung): 217 nM
- TGI (NCI-H522 lung): 410 nM
- GI50 (OVCAR-8 ovarian): 831 nM
- TGI (OVCAR-8 ovarian): 2100 nM
- GI50 (UACC-62 melanoma): 719 nM
- TGI (UACC-62 melanoma): 1940 nM
- GI50 (SK-MEL-5 melanoma): 1340 nM
- TGI (SK-MEL-5 melanoma): 2630 nM
- GI50 (KM12 colon): 193 nM
- TGI (KM12 colon): 355 nM
- GI50 (OVCAR-5 ovarian): 1850 nM
- TGI (OVCAR-5 ovarian): 3740 nM
- GI50 (SK-OV-3 ovarian): 917 nM
- TGI (SK-OV-3 ovarian): 2250 nM
- GI50 (HOP-62 NSCLC): 695 nM
- TGI (HOP-62 NSCLC): 1840 nM
- GI50 (U251 glioblastoma): 195 nM
- TGI (U251 glioblastoma): 340 nM
- GI50 (SF-268 CNS): 732 nM
- TGI (SF-268 CNS): 1820 nM
- GI50 (HCT-116 colon): 200 nM
- TGI (HCT-116 colon): 413 nM
- GI50 (CCRF-CEM leukemia): 191 nM
- TGI (CCRF-CEM leukemia): 335 nM
- GI50 (EKVX NSCLC): 1230 nM
- TGI (EKVX NSCLC): 2670 nM
- GI50 (HCC-2998 colon): 541 nM
- TGI (HCC-2998 colon): 1000 nM
- GI50 (SK-MEL-2 melanoma): 199 nM
- TGI (SK-MEL-2 melanoma): 386 nM
- GI50 (CAKI-1 renal): 2960 nM
- TGI (CAKI-1 renal): 8450 nM
- GI50 (NCI-H460 NSCLC): 1670 nM
- TGI (NCI-H460 NSCLC): 3150 nM
- GI50 (MOLT-4 leukemia): 203 nM
- TGI (MOLT-4 leukemia): 347 nM
- GI50 (T-47D breast): 192 nM
- TGI (T-47D breast): 334 nM
- GI50 (UO-31 renal): 33800 nM
- TGI (UO-31 renal): > 100000 nM
- GI50 (OVCAR-3 ovarian): 189 nM
- TGI (OVCAR-3 ovarian): 333 nM
- GI50 (NCI-H226 lung): 625 nM
- TGI (NCI-H226 lung): 1210 nM
- GI50 (A549 NSCLC): 1870 nM
- TGI (A549 NSCLC): 3400 nM
- GI50 (M14 melanoma): 1550 nM
- TGI (M14 melanoma): 2920 nM

Compound: CNCc1ccccc1-c1csc([C@@H](C)Nc2nc(C)nc3cc(OC)c(OC)cc23)c1
- GI50 (MDA-MB-435 melanoma): 1570 nM
- TGI (MDA-MB-435 melanoma): 2910 nM
- GI50 (LOX IMVI melanoma): 1650 nM
- TGI (LOX IMVI melanoma): 3010 nM
- GI50 (MDA-MB-231 breast): 1720 nM
- TGI (MDA-MB-231 breast): 3100 nM
- GI50 (SR leukemia): 676 nM
- TGI (SR leukemia): 1940 nM
- GI50 (HT29 colon): 1560 nM
- TGI (HT29 colon): 2910 nM
- GI50 (NCI-H322M lung): 1210 nM
- TGI (NCI-H322M lung): 2480 nM
- GI50 (NCI/ADR-RES ovarian): 1620 nM
- TGI (NCI/ADR-RES ovarian): 2990 nM
- GI50 (NCI-H23 lung): 1250 nM
- TGI (NCI-H23 lung): 2540 nM
- GI50 (RXF 393 renal): 414 nM
- TGI (RXF 393 renal): 1670 nM
- GI50 (SNB-75 CNS): 1300 nM
- TGI (SNB-75 CNS): 2570 nM
- GI50 (SK-MEL-28 melanoma): 1510 nM
- TGI (SK-MEL-28 melanoma): 2840 nM
- GI50 (786-0 renal): 1240 nM
- TGI (786-0 renal): 2500 nM
- GI50 (A498 renal): 1030 nM
- TGI (A498 renal): 2190 nM
- GI50 (SF-295 CNS): 1700 nM
- TGI (SF-295 CNS): 3070 nM
- GI50 (SW-620 colon): 1360 nM
- TGI (SW-620 colon): 2640 nM
- GI50 (ACHN renal): 1510 nM
- TGI (ACHN renal): 2840 nM
- GI50 (OVCAR-4 ovarian): 1140 nM
- TGI (OVCAR-4 ovarian): 2380 nM
- GI50 (BT-549 breast): 1250 nM
- TGI (BT-549 breast): 2500 nM
- GI50 (HCT-15 colon): 1500 nM
- TGI (HCT-15 colon): 2830 nM
- GI50 (UACC-257 melanoma): 275 nM
- TGI (UACC-257 melanoma): 810 nM
- GI50 (HL-60(TB) leukemia): 1080 nM
- TGI (HL-60(TB) leukemia): 2270 nM
- GI50 (SN12C renal): 1030 nM
- TGI (SN12C renal): 2200 nM
- GI50 (TK-10 renal): 1450 nM
- TGI (TK-10 renal): 2770 nM
- GI50 (NCI-H522 lung): 1160 nM
- TGI (NCI-H522 lung): 2390 nM
- GI50 (OVCAR-8 ovarian): 1500 nM
- TGI (OVCAR-8 ovarian): 2830 nM
- GI50 (UACC-62 melanoma): 1700 nM
- TGI (UACC-62 melanoma): 3080 nM
- GI50 (SK-MEL-5 melanoma): 1150 nM
- TGI (SK-MEL-5 melanoma): 2370 nM
- GI50 (KM12 colon): 914 nM
- TGI (KM12 colon): 2140 nM
- GI50 (OVCAR-5 ovarian): 1510 nM
- TGI (OVCAR-5 ovarian): 2860 nM
- GI50 (SK-OV-3 ovarian): 1310 nM
- TGI (SK-OV-3 ovarian): 2580 nM
- GI50 (HOP-62 NSCLC): 1480 nM
- TGI (HOP-62 NSCLC): 2800 nM
- GI50 (U251 glioblastoma): 1440 nM
- TGI (U251 glioblastoma): 2750 nM
- GI50 (SF-268 CNS): 1610 nM
- TGI (SF-268 CNS): 2960 nM
- GI50 (HCT-116 colon): 1290 nM
- TGI (HCT-116 colon): 2560 nM
- GI50 (CCRF-CEM leukemia): 1070 nM
- TGI (CCRF-CEM leukemia): 2260 nM
- GI50 (EKVX NSCLC): 1100 nM
- TGI (EKVX NSCLC): 2320 nM
- GI50 (HCC-2998 colon): 240 nM
- TGI (HCC-2998 colon): 1070 nM
- GI50 (SK-MEL-2 melanoma): 1320 nM
- TGI (SK-MEL-2 melanoma): 2590 nM
- GI50 (CAKI-1 renal): 1050 nM
- TGI (CAKI-1 renal): 2220 nM
- GI50 (NCI-H460 NSCLC): 1580 nM
- TGI (NCI-H460 NSCLC): 2930 nM
- GI50 (MOLT-4 leukemia): 1180 nM
- TGI (MOLT-4 leukemia): 2400 nM
- GI50 (T-47D breast): 1130 nM
- TGI (T-47D breast): 2340 nM
- GI50 (UO-31 renal): 1520 nM
- TGI (UO-31 renal): 2850 nM
- GI50 (OVCAR-3 ovarian): 1260 nM
- TGI (OVCAR-3 ovarian): 2520 nM
- GI50 (NCI-H226 lung): 1250 nM
- TGI (NCI-H226 lung): 2580 nM
- GI50 (A549 NSCLC): 1670 nM
- TGI (A549 NSCLC): 3040 nM
- GI50 (M14 melanoma): 1560 nM
- TGI (M14 melanoma): 2900 nM

From PubChem BioAssay (NCI)
